Experimental data published in patent EP2951180B1, “2,6,7,8 SUBSTITUTED PURINES AS HDM2 INHIBITORS” (Merck Sharp & Dohme Corp., priority 2013, dated 2014).
pIC50: −log10 of the molar value.

Target: T1, HDM2 (Homo sapiens, UniProt Q00987)
T1 construct: Thioredoxin (N); made in house; host or cells: E. coli strain BL21(DE3)Rosetta
Assay: HDM2 FRET assay (inhibition of binding of FITC labeled p53-pocket peptide to HDM2)
Details: 0.5 nM HDM2 (residues 17 to 125), 3nM peptide, two hour incubation at room temperature; read-out: FRET IC50
Summary of the method: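 Displacement of FITC-p53 peptide (3 nM) from His-tagged HDM2 (0.5 nM) is measured by Tb-to-fluorescein FRET in PBS, 0.01% BSA, 0.01% Tween-20. IC50 values derive from 10-point curves.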

T1 sequence (Q00987 17-125): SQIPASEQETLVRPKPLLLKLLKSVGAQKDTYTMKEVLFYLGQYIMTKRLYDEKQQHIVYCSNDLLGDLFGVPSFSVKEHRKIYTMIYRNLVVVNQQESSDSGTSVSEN

Row | Compound | pIC50
1 | CC(C)[C@@H]1COCCN1c1nc2nc(-c3n[nH]c(=O)o3)nc(-c3cccc(Cl)c3)c2n1C[C@H]1CC[C@H](C)CC1 [Example 16.75, 5-{6-(3-chlorophenyl)-7-[(trans-4-methylcyclohexyl)methyl]-8-[(3R)-3-(1-methylethyl)morpholin-4-yl]-7H-purin-2-yl}-1,3,4-oxadiazol-2(3H)-one] | 7.83
2 | CC[C@H](Nc1nc2nc(-c3n[nH]c(=O)o3)nc(-c3cccc(Cl)c3)c2n1C[C@H]1CC[C@H](C)CC1)c1cccc(F)c1 [Example 16.76, 5-{6-(3-chlorophenyl)-8-{[(1S)-1-(3-fluorophenyl)propyl]amino}-7-[(trans-4-methylcyclohexyl)methyl]-7H-purin-2-yl}-1,3,4-oxadiazol-2(3H)-one] | 7.88
3 | C[C@H]1CC[C@H](Cn2c(N3CCOCC34CC4)nc3nc(-c4noc(=O)[nH]4)nc(-c4cccc(Cl)c4)c32)CC1 [Example 16.79, 3-[6-(3-chlorophenyl)-7-[(trans-4-methylcyclohexyl)methyl]-8-(7-oxa-4-azaspiro[2.5]oct-4-yl)-7H-purin-2-yl]-1,2,4-oxadiazol-5(4H)-one] | 7.67
4 | C[C@H]1CC[C@H](Cn2c(N3CCOCC34CCC4)nc3nc(-c4noc(=O)[nH]4)nc(-c4cccc(Cl)c4)c32)CC1 [Example 16.80, 3-[6-(3-chlorophenyl)-7-[(trans-4-methylcyclohexyl)methyl]-8-(8-oxa-5-azaspiro[3.5]non-5-yl)-7H-purin-2-yl]-1,2,4-oxadiazol-5(4H)-one] | 8.06
5 | C[C@H]1CC[C@H](Cn2c(N3CCO[C@H]4CCC[C@@H]43)nc3nc(-c4noc(=O)[nH]4)nc(-c4cccc(Cl)c4)c32)CC1 [Example 16.81, 3-{6-(3-chlorophenyl)-8-[(4aS,7aS)-hexahydrocyclopenta [b][1,4]oxazin-4(4aH)-yl]-7-[(trans-4-methylcyclohexyl)methyl]-7H-purin-2-yl}-1,2,4-oxadiazol-5(4H)-one] | 6.98
6 | C[C@H]1CC[C@H](Cn2c(N3CCO[C@@H]4CCC[C@H]43)nc3nc(-c4noc(=O)[nH]4)nc(-c4cccc(Cl)c4)c32)CC1 [Example 16.82, 3-{6-(3-chlorophenyl)-8-[(4aR,7aR)-hexahydrocyclopenta [b][1,4]oxazin-4(4aH)-yl]-7-[(trans-4-methylcyclohexyl)methyl]-7H-purin-2-yl}-1,2,4-oxadiazol-5(4H)-one] | 8.96
7 | C[C@H]1CC[C@H](Cn2c(N3CCO[C@H]4CCC[C@@H]43)nc3nc(-c4n[nH]c(=O)o4)nc(-c4cccc(Cl)c4)c32)CC1 [Example 16.83, 5-{6-(3-chlorophenyl)-8-[(4aS,7aS)-hexahydrocyclopenta [b][1,4]oxazin-4(4aH)-yl]-7-[(trans-4-methylcyclohexyl)methyl]-7H-purin-2-yl}-1,3,4-oxadiazol-2(3H)-one] | 6.73
8 | C[C@H]1CC[C@H](Cn2c(N3CCO[C@@H]4CCC[C@H]43)nc3nc(-c4n[nH]c(=O)o4)nc(-c4cccc(Cl)c4)c32)CC1 [Example 16.84, 5-{6-(3-chlorophenyl)-8-[(4aR,7aR)-hexahydrocyclopenta [b][1,4]oxazin-4(4aH)-yl]-7-[(trans-4-methylcyclohexyl)methyl]-7H-purin-2-yl}-1,3,4-oxadiazol-2(3H)-one] | 8.61
9 | COC[C@H](Nc1nc2nc(-c3noc(=O)[nH]3)nc(-c3cccc(Cl)c3)c2n1C[C@H]1CC[C@H](C)CC1)c1ccccc1 [Example 16.85, 3-{6-(3-chlorophenyl)-8-{[(1R)-2-methoxy-1-phenylethyl]amino}-7-[(trans-4-methylcyclohexyl)methyl]-7H-purin-2-yl}-1,2,4-oxadiazol-5(4H)-one] | 8.54
10 | C[C@H]1CC[C@H](Cn2c(N3CCO[C@H]4CCC[C@@H]43)nc3nc(-c4noc(=O)[nH]4)nc(-c4cncc(Cl)c4)c32)CC1 [Example 16.86, 3-{6-(5-chloropyridin-3-yl)-8-[(4aS,7aS)-hexahydrocyclopenta [b][1,4]oxazin-4(4aH)-yl]-7-[(trans-4-methylcyclohexyl)methyl]-7H-purin-2-yl}-1,2,4-oxadiazol-5(4H)-one] | 6.46
